Laboratory results: ChEMBL document CHEMBL4477252, “Optimization of microtubule affinity regulating kinase (MARK) inhibitors with improved physical properties” (Bioorg Med Chem Lett, 2016)

target: Cyclin-dependent kinase 5/CDK5 activator 1 (Homo sapiens, UniProt Q00535); assay: Inhibition of full-length recombinant human GST and His-tagged CDK5/P25 expressed in baculovirus expression system by Z'-LYTE assay

Row | SMILES | IC50
1 | Cn1cc(-c2cnc3c(-c4csc(C(=O)NCC(F)(F)F)c4)cnn3c2)cn1 | < 10 nM
2 | Cc1sc(C(=O)N[C@@H]2[C@H](N)CCCC2(F)F)cc1-c1cnn2cc(Cl)cnc12 | 61 nM
3 | O=C(NCC(F)(F)F)c1cc(-c2cnn3cc(-c4ccc(OCCN5CCCCC5)cc4)cnc23)cs1 | 19 nM
4 | Cn1cc(-c2cnc3c(-c4csc(C(=O)N[C@@H]5CCCC[C@@H]5N)c4)cnn3c2)cn1 (racemic) | 4.4 nM

target: T1, Serine/threonine-protein kinase Chk1 (Homo sapiens, UniProt O14757); assay: Inhibition of full-length recombinant human His-tagged CHEK1 expressed in baculovirus expression system by Z'-LYTE assay
T1 sequence (O14757 whole entry): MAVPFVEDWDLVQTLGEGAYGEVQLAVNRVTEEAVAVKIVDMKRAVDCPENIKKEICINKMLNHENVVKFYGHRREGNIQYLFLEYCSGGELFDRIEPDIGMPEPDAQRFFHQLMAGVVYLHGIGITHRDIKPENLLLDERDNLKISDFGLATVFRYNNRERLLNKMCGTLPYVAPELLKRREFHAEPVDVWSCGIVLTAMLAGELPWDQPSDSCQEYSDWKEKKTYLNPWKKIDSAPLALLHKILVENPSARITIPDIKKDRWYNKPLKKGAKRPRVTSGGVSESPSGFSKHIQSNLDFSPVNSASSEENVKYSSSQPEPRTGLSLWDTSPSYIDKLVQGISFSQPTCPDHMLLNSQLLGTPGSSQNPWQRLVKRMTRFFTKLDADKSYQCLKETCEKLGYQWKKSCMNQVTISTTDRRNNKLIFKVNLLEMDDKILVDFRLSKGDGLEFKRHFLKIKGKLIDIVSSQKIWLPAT

Row | SMILES | IC50
5 | Cn1cc(-c2cnc3c(-c4csc(C(=O)NCC(F)(F)F)c4)cnn3c2)cn1 | 190 nM
6 | Cc1sc(C(=O)N[C@@H]2[C@H](N)CCCC2(F)F)cc1-c1cnn2cc(Cl)cnc12 | 200 nM
7 | O=C(NCC(F)(F)F)c1cc(-c2cnn3cc(-c4ccc(OCCN5CCCCC5)cc4)cnc23)cs1 | 57 nM
8 | Cn1cc(-c2cnc3c(-c4csc(C(=O)N[C@@H]5CCCC[C@@H]5N)c4)cnn3c2)cn1 (racemic) | 2.2 nM

target: Casein kinase I isoform alpha (Homo sapiens, UniProt P48729); assay: Inhibition of recombinant human GST-tagged cytoplasmic CSNK1A1 expressed in baculovirus expression system by Z'-LYTE assay

Row | SMILES | IC50
9 | Cn1cc(-c2cnc3c(-c4csc(C(=O)NCC(F)(F)F)c4)cnn3c2)cn1 | 630 nM
10 | Cc1sc(C(=O)N[C@@H]2[C@H](N)CCCC2(F)F)cc1-c1cnn2cc(Cl)cnc12 | 18000 nM
11 | O=C(NCC(F)(F)F)c1cc(-c2cnn3cc(-c4ccc(OCCN5CCCCC5)cc4)cnc23)cs1 | 230 nM
12 | Cn1cc(-c2cnc3c(-c4csc(C(=O)N[C@@H]5CCCC[C@@H]5N)c4)cnn3c2)cn1 (racemic) | 2100 nM

target: Insulin-like growth factor 1 receptor (Homo sapiens, UniProt P08069); assay: Inhibition of recombinant human C-terminal His-tagged cytoplasmic IGF1R (960 to 1397 residues) expressed in baculovirus expression system by Z'-LYTE assay
Sequence (P08069 31-736 limits assumed): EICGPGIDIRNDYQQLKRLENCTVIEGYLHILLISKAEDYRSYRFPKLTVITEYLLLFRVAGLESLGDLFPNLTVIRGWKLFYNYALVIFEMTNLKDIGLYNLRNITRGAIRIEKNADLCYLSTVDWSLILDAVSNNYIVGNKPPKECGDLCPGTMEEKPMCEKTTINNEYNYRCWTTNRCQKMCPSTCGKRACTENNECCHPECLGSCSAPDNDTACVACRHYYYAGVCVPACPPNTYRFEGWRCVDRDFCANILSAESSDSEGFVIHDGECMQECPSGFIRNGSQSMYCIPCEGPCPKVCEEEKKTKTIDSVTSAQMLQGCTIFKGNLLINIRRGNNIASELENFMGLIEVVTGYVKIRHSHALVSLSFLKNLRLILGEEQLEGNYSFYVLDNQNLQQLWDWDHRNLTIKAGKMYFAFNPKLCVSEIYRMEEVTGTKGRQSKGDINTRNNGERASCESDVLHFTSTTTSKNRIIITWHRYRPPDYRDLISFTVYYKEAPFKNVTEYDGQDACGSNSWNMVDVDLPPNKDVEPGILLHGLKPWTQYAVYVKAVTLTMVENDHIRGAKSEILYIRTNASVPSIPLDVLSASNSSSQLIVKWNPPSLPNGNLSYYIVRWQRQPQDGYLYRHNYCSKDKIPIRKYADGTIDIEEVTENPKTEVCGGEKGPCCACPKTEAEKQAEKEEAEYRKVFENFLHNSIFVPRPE
Sequence (P08069 741-1367 limits assumed): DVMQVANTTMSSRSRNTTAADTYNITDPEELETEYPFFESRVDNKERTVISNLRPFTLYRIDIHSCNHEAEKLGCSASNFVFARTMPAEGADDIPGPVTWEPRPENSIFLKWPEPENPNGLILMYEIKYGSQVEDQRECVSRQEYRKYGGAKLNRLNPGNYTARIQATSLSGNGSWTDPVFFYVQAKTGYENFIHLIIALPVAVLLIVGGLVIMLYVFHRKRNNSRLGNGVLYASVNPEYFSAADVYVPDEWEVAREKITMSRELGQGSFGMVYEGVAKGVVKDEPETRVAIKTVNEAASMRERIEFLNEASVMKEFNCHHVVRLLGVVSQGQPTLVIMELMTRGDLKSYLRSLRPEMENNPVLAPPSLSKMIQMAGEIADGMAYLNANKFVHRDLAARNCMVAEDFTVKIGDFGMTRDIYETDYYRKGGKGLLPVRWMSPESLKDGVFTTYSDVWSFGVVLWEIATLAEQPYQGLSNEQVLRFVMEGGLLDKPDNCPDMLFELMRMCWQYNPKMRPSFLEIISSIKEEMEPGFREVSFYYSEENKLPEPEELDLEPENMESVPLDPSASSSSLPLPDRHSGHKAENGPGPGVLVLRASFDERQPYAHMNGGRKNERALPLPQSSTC

Row | SMILES | IC50
13 | Cn1cc(-c2cnc3c(-c4csc(C(=O)NCC(F)(F)F)c4)cnn3c2)cn1 | > 100000 nM
14 | Cc1sc(C(=O)N[C@@H]2[C@H](N)CCCC2(F)F)cc1-c1cnn2cc(Cl)cnc12 | > 100000 nM
15 | O=C(NCC(F)(F)F)c1cc(-c2cnn3cc(-c4ccc(OCCN5CCCCC5)cc4)cnc23)cs1 | > 100000 nM
16 | Cn1cc(-c2cnc3c(-c4csc(C(=O)N[C@@H]5CCCC[C@@H]5N)c4)cnn3c2)cn1 (racemic) | 2800 nM

target: T2, Interleukin-1 receptor-associated kinase 4 (Homo sapiens, UniProt Q9NWZ3); assay: Inhibition of full-length recombinant human His-tagged IRAK4 expressed in baculovirus expression system by Z'-LYTE assay
T2 sequence (Q9NWZ3 whole entry): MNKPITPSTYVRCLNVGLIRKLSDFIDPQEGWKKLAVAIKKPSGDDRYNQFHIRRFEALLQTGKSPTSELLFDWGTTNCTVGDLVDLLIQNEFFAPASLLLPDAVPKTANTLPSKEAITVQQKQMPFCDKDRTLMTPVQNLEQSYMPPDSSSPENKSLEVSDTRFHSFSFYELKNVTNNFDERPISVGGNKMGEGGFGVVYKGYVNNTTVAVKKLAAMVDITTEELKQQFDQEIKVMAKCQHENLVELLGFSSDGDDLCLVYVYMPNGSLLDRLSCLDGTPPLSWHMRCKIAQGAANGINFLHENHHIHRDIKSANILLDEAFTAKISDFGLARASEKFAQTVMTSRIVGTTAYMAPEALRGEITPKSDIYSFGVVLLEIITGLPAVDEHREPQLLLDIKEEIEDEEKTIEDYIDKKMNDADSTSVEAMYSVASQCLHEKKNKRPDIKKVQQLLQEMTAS

Row | SMILES | IC50
17 | Cn1cc(-c2cnc3c(-c4csc(C(=O)NCC(F)(F)F)c4)cnn3c2)cn1 | 64 nM
18 | Cc1sc(C(=O)N[C@@H]2[C@H](N)CCCC2(F)F)cc1-c1cnn2cc(Cl)cnc12 | 3000 nM
19 | O=C(NCC(F)(F)F)c1cc(-c2cnn3cc(-c4ccc(OCCN5CCCCC5)cc4)cnc23)cs1 | 210 nM
20 | Cn1cc(-c2cnc3c(-c4csc(C(=O)N[C@@H]5CCCC[C@@H]5N)c4)cnn3c2)cn1 (racemic) | 23 nM

target: T3, Dual specificity mitogen-activated protein kinase kinase 6 (Homo sapiens, UniProt P52564); assay: Inhibition of full-length recombinant human His-tagged MAP2K6 expressed in baculovirus expression system by Z'-LYTE assay
T3 sequence (P52564 whole entry): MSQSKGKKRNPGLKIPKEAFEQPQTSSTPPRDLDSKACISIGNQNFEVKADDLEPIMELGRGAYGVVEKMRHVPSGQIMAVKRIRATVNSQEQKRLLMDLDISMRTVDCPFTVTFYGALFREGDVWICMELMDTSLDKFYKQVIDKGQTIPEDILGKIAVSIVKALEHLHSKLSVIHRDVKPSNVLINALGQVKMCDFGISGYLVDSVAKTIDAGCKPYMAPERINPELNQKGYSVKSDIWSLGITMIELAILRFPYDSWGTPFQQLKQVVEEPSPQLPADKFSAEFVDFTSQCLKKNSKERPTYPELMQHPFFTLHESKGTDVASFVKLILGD

Row | SMILES | IC50
21 | Cn1cc(-c2cnc3c(-c4csc(C(=O)NCC(F)(F)F)c4)cnn3c2)cn1 | 35000 nM
22 | Cc1sc(C(=O)N[C@@H]2[C@H](N)CCCC2(F)F)cc1-c1cnn2cc(Cl)cnc12 | 3300 nM
23 | O=C(NCC(F)(F)F)c1cc(-c2cnn3cc(-c4ccc(OCCN5CCCCC5)cc4)cnc23)cs1 | 19000 nM
24 | Cn1cc(-c2cnc3c(-c4csc(C(=O)N[C@@H]5CCCC[C@@H]5N)c4)cnn3c2)cn1 (racemic) | 290 nM

target: Hepatocyte growth factor receptor (Homo sapiens, UniProt P08581); assay: Inhibition of recombinant human N-terminal His-tagged cytoplasmic MET (956 to 1390 residues) expressed in baculovirus expression system by Z'-LYTE assay

Row | SMILES | IC50
25 | Cn1cc(-c2cnc3c(-c4csc(C(=O)NCC(F)(F)F)c4)cnn3c2)cn1 | 4000 nM
26 | Cc1sc(C(=O)N[C@@H]2[C@H](N)CCCC2(F)F)cc1-c1cnn2cc(Cl)cnc12 | 8500 nM
27 | O=C(NCC(F)(F)F)c1cc(-c2cnn3cc(-c4ccc(OCCN5CCCCC5)cc4)cnc23)cs1 | 1400 nM
28 | Cn1cc(-c2cnc3c(-c4csc(C(=O)N[C@@H]5CCCC[C@@H]5N)c4)cnn3c2)cn1 (racemic) | 410 nM

target: NT-3 growth factor receptor (Homo sapiens, UniProt Q16288); assay: Inhibition of recombinant human His-tagged cytoplasmic NTRK3 expressed in baculovirus expression system by Z'-LYTE assay

Row | SMILES | IC50
29 | Cn1cc(-c2cnc3c(-c4csc(C(=O)NCC(F)(F)F)c4)cnn3c2)cn1 | 120 nM
30 | Cc1sc(C(=O)N[C@@H]2[C@H](N)CCCC2(F)F)cc1-c1cnn2cc(Cl)cnc12 | 1400 nM
31 | O=C(NCC(F)(F)F)c1cc(-c2cnn3cc(-c4ccc(OCCN5CCCCC5)cc4)cnc23)cs1 | 380 nM
32 | Cn1cc(-c2cnc3c(-c4csc(C(=O)N[C@@H]5CCCC[C@@H]5N)c4)cnn3c2)cn1 (racemic) | 13 nM

target: Serine/threonine-protein kinase PLK1 (Homo sapiens, UniProt P53350); assay: Inhibition of full-length recombinant human His-tagged PLK1 expressed in baculovirus expression system by Z'-LYTE assay
Sequence (P53350 whole entry): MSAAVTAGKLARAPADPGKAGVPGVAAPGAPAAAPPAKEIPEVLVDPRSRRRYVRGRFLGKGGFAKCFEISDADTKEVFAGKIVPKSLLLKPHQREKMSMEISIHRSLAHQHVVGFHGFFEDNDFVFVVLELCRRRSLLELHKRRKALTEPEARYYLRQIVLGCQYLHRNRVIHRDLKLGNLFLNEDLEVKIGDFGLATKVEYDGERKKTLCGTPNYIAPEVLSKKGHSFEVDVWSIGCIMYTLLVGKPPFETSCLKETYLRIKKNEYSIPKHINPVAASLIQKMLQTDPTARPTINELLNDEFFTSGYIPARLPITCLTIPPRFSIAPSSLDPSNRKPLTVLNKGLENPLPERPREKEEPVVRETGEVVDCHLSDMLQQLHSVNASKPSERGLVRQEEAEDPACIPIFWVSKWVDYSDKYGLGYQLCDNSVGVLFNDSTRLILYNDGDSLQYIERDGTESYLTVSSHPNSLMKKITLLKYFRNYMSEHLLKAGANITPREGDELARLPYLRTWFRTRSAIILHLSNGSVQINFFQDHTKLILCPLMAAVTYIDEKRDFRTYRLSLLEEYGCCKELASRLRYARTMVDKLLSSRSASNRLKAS

Row | SMILES | IC50
33 | Cn1cc(-c2cnc3c(-c4csc(C(=O)NCC(F)(F)F)c4)cnn3c2)cn1 | > 100000 nM
34 | Cc1sc(C(=O)N[C@@H]2[C@H](N)CCCC2(F)F)cc1-c1cnn2cc(Cl)cnc12 | > 100000 nM
35 | O=C(NCC(F)(F)F)c1cc(-c2cnn3cc(-c4ccc(OCCN5CCCCC5)cc4)cnc23)cs1 | 55000 nM
36 | Cn1cc(-c2cnc3c(-c4csc(C(=O)N[C@@H]5CCCC[C@@H]5N)c4)cnn3c2)cn1 (racemic) | > 10000 nM

target: Protein-tyrosine kinase 6 (Homo sapiens, UniProt Q13882); assay: Inhibition of full-length recombinant human His-tagged PTK6 expressed in baculovirus expression system by Z'-LYTE assay
Sequence (Q13882 whole entry): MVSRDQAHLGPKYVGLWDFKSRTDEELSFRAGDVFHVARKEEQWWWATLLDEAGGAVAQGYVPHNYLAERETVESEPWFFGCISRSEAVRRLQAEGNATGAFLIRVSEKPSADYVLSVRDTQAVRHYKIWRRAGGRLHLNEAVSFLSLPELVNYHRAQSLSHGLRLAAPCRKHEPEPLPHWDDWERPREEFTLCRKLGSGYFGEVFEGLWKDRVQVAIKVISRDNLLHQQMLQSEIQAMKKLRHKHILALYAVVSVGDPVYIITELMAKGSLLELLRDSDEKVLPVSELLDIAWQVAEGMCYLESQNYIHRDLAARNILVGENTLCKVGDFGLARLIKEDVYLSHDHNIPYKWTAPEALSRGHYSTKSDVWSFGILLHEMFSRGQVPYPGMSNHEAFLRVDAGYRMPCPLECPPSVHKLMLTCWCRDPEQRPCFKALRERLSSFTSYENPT

Row | SMILES | IC50
37 | Cn1cc(-c2cnc3c(-c4csc(C(=O)NCC(F)(F)F)c4)cnn3c2)cn1 | > 100000 nM
38 | Cc1sc(C(=O)N[C@@H]2[C@H](N)CCCC2(F)F)cc1-c1cnn2cc(Cl)cnc12 | > 100000 nM
39 | O=C(NCC(F)(F)F)c1cc(-c2cnn3cc(-c4ccc(OCCN5CCCCC5)cc4)cnc23)cs1 | 1700 nM
40 | Cn1cc(-c2cnc3c(-c4csc(C(=O)N[C@@H]5CCCC[C@@H]5N)c4)cnn3c2)cn1 (racemic) | 390 nM

target: RAF proto-oncogene serine/threonine-protein kinase (Homo sapiens, UniProt P04049, Y340D/Y341D); assay: Inhibition of recombinant human GST-tagged RAF1 Y340D/Y341D mutant expressed in baculovirus expression system by Z'-LYTE assay
Sequence (P04049 whole entry Y340D/Y341D): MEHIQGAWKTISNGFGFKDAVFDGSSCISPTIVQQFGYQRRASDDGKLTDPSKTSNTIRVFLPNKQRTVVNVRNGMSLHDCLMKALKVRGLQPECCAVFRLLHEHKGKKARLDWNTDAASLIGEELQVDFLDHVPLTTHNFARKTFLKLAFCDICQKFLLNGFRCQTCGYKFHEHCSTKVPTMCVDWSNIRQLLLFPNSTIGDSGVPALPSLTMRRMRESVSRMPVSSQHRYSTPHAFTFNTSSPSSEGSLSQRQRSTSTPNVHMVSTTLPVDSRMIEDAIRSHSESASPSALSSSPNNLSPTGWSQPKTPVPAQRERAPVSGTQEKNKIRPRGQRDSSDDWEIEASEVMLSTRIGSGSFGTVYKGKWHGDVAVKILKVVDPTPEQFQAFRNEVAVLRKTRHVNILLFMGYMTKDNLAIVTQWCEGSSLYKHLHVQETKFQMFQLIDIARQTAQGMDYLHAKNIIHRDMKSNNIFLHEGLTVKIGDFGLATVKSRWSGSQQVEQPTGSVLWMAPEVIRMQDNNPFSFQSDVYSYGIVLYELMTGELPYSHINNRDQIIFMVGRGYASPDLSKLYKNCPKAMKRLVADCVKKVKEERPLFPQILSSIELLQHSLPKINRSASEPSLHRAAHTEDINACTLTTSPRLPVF

Row | SMILES | IC50
41 | Cn1cc(-c2cnc3c(-c4csc(C(=O)NCC(F)(F)F)c4)cnn3c2)cn1 | 560 nM
42 | Cc1sc(C(=O)N[C@@H]2[C@H](N)CCCC2(F)F)cc1-c1cnn2cc(Cl)cnc12 | 950 nM
43 | O=C(NCC(F)(F)F)c1cc(-c2cnn3cc(-c4ccc(OCCN5CCCCC5)cc4)cnc23)cs1 | 630 nM
44 | Cn1cc(-c2cnc3c(-c4csc(C(=O)N[C@@H]5CCCC[C@@H]5N)c4)cnn3c2)cn1 (racemic) | 48 nM

target: Ribosomal protein S6 kinase alpha-3 (Homo sapiens, UniProt P51812); assay: Inhibition of full-length recombinant human His-tagged RPS6KA3 expressed in baculovirus expression system by Z'-LYTE assay
Sequence (P51812 whole entry): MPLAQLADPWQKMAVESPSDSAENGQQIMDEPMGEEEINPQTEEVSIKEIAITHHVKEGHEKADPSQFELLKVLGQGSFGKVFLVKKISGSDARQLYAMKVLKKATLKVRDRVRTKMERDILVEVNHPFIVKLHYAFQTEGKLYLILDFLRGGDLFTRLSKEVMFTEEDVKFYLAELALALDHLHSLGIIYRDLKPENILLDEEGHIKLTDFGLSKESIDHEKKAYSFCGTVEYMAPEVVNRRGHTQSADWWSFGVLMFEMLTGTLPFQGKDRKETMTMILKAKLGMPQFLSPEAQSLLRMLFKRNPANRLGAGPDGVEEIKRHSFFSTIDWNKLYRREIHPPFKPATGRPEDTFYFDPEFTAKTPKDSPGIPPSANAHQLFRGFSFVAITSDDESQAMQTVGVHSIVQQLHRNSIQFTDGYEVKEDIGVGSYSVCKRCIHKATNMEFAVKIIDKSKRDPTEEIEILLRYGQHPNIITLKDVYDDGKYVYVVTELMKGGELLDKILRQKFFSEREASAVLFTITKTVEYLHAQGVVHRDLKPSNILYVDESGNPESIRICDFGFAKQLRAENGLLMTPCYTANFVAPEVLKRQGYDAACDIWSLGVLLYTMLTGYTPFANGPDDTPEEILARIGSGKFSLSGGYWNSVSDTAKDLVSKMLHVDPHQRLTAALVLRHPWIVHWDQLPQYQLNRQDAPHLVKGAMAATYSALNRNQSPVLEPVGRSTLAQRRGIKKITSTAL

Row | SMILES | IC50
45 | Cn1cc(-c2cnc3c(-c4csc(C(=O)NCC(F)(F)F)c4)cnn3c2)cn1 | 380 nM
46 | Cc1sc(C(=O)N[C@@H]2[C@H](N)CCCC2(F)F)cc1-c1cnn2cc(Cl)cnc12 | 47 nM
47 | O=C(NCC(F)(F)F)c1cc(-c2cnn3cc(-c4ccc(OCCN5CCCCC5)cc4)cnc23)cs1 | 260 nM
48 | Cn1cc(-c2cnc3c(-c4csc(C(=O)N[C@@H]5CCCC[C@@H]5N)c4)cnn3c2)cn1 (racemic) | < 1 nM

target: T4, Serine/threonine-protein kinase Sgk1 (Homo sapiens, UniProt O00141); assay: Inhibition of recombinant human GST-tagged SGK catalytic domain expressed in baculovirus expression system by Z'-LYTE assay
T4 sequence (O00141 whole entry): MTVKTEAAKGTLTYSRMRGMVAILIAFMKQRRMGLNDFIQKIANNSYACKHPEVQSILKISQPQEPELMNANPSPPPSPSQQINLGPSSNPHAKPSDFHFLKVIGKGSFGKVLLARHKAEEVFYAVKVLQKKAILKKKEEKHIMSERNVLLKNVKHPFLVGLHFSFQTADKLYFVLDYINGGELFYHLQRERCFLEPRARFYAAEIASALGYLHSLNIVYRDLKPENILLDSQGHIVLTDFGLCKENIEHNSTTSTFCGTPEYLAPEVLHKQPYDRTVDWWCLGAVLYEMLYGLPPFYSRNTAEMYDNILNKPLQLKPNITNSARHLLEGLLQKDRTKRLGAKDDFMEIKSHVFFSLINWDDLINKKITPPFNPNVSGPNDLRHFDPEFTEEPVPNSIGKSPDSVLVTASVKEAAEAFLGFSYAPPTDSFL

Row | SMILES | IC50
49 | Cn1cc(-c2cnc3c(-c4csc(C(=O)NCC(F)(F)F)c4)cnn3c2)cn1 | 63 nM
50 | Cc1sc(C(=O)N[C@@H]2[C@H](N)CCCC2(F)F)cc1-c1cnn2cc(Cl)cnc12 | 810 nM
51 | O=C(NCC(F)(F)F)c1cc(-c2cnn3cc(-c4ccc(OCCN5CCCCC5)cc4)cnc23)cs1 | 27 nM
52 | Cn1cc(-c2cnc3c(-c4csc(C(=O)N[C@@H]5CCCC[C@@H]5N)c4)cnn3c2)cn1 (racemic) | 200 nM

target: Angiopoietin-1 receptor (Homo sapiens, UniProt Q02763); assay: Inhibition of recombinant human GST-tagged cytoplasmic TEK expressed in baculovirus expression system by Z'-LYTE assay
Sequence (Q02763 whole entry): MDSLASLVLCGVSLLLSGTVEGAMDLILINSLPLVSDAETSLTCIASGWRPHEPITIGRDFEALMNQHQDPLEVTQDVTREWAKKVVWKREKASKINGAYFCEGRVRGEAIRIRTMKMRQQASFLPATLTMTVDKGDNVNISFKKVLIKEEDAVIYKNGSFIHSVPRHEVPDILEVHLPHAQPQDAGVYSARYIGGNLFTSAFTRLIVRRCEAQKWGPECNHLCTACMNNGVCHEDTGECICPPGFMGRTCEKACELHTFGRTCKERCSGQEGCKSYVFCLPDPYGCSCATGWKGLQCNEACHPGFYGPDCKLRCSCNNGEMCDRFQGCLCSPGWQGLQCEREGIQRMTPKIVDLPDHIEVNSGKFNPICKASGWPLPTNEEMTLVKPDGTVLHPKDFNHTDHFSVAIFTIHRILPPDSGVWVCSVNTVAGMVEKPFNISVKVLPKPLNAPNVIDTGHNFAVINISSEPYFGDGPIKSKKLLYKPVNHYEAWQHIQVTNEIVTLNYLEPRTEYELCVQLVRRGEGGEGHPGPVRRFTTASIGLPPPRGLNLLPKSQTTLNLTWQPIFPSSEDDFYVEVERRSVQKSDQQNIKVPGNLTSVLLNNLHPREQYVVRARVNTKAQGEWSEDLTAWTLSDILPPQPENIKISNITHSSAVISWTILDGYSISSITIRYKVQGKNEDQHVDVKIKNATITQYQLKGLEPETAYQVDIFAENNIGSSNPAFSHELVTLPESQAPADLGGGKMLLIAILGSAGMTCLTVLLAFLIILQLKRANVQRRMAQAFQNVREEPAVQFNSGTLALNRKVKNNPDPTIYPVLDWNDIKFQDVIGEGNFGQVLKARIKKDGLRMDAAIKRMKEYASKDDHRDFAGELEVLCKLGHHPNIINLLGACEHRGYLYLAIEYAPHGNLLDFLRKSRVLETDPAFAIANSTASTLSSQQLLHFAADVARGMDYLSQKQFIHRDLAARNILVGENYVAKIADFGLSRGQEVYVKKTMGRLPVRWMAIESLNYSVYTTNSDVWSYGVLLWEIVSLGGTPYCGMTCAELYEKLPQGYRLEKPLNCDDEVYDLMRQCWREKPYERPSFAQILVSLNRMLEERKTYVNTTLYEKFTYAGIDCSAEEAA

Row | SMILES | IC50
53 | Cn1cc(-c2cnc3c(-c4csc(C(=O)NCC(F)(F)F)c4)cnn3c2)cn1 | 4700 nM
54 | Cc1sc(C(=O)N[C@@H]2[C@H](N)CCCC2(F)F)cc1-c1cnn2cc(Cl)cnc12 | > 100000 nM
55 | O=C(NCC(F)(F)F)c1cc(-c2cnn3cc(-c4ccc(OCCN5CCCCC5)cc4)cnc23)cs1 | 4700 nM
56 | Cn1cc(-c2cnc3c(-c4csc(C(=O)N[C@@H]5CCCC[C@@H]5N)c4)cnn3c2)cn1 (racemic) | 660 nM
